From US20170022258A1, “PEPTIDES FOR USE IN THE TREATMENT OF IL-1 RELATED DISEASES AND CONDITIONS” (C4M PHARMACEUTICALS PTY LTD., priority 2011, published 2017)
Non-standard residues stand in square brackets, D forms with d. Residues, ends and D or L forms follow the SMILES beside them. No end group written: not given here.

T1: IL-1 receptor (IL-1R) expressed on human monocytes (human, UniProt P14778 18-569)
T1 sequence (looked up): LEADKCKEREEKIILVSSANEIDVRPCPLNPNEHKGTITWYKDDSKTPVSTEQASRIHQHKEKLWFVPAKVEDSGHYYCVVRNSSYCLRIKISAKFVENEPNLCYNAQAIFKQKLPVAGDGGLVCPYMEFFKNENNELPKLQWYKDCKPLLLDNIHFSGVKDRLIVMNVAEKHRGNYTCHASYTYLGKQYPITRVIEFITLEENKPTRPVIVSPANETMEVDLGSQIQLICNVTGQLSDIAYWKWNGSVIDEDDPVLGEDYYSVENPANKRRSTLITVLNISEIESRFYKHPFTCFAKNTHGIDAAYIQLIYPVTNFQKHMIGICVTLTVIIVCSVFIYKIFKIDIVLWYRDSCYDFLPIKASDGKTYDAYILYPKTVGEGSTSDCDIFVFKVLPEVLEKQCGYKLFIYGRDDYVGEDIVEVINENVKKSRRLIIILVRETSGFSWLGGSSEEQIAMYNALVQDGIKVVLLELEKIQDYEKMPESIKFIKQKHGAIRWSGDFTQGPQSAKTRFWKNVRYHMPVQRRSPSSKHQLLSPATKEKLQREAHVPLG

T2: IL-1 receptor (Homo sapiens, UniProt P14778)
T2 construct: confluent human monocytes, which express the IL-1 receptor; endogenous in cells; host or cells: human monocytes
T2 sequence (P14778 18-569): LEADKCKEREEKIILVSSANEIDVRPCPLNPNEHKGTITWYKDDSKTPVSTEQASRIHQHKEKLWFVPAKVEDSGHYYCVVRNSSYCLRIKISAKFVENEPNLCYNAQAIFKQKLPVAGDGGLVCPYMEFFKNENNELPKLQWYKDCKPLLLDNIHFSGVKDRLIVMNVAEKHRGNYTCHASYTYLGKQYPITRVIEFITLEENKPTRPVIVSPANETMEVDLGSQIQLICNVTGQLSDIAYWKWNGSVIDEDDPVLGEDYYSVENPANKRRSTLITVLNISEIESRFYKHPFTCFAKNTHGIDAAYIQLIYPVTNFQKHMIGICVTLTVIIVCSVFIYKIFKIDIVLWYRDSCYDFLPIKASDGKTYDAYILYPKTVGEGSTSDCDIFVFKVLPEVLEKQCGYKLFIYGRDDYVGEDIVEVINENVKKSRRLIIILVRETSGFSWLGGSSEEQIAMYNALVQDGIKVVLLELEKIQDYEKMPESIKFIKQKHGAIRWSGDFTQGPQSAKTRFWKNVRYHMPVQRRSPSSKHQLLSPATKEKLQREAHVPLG


target: IL-1 receptor (IL-1R) expressed on human monocytes (human) (UniProt P14778); assay: cell-based or functional assay; conditions: not given

Row | IC50, in vitro inhibition of IL-1 stimulation of IL-8 in human skin fibroblasts (rIL-1β 50 pg/ml, IL-8 ELISA) [nM] | Molecule
1 | 11 | Ac-[dL][dP][dL][dA][dY][dP][dQ][dW][dY][dY][dA][dN][dS][dE][dE][dW][dT][dF][dP][dT][dE] [peptide of SEQ ID NO: 14 (Ac-…, D-amino acids)]

target: T1, IL-1 receptor (IL-1R) expressed on …; assay: cell-based or functional assay; conditions: not given

Row | IC50, in vitro inhibition of IL-1 stimulation of IL-8 in human skin fibroblasts (rIL-1β 50 pg/ml, IL-8 ELISA) [nM] | Molecule
2 | > 10000 | Ac-[dK][dD][dQ][dK][dR][dN][dE][dS][dL][dD][dT][dI][dN][dV][dA][dE][dL][dQ][dL] [peptide of SEQ ID NO: 12 (Ac-KDQKRNESLDTINVAELQL, D-amino acids)]
3 | 11 | Ac-ETPFTWEESNAYYWQPYALPL (also called peptide 13) [peptide of SEQ ID NO: 13 (Ac-ETPFTWEESNAYYWQPYALPL)]

target: T2, IL-1 receptor; assay: Radioligand competition binding assay (125I-labeled IL-1α) on human monocytes; conditions: IL-1 binding antagonism on human monocytes; average of three measurements and standard error
Description: Radioligand competition binding assays were performed in 96-well plates containing confluent human monocytes, which express the IL-1 receptor. Wells were washed three times with binding buffer, and binding buffer was placed in each well. Peptides were resuspended in dimethyl sulfoxide at 20 mM and diluted in binding buffer to the desired starting concentration. Using a Beckman robotic system, five 3-fold dilutions were prepared, and peptide solution was transferred to duplicate receptor-containing wells. To each well, radioactive ^125Iodine-labeled IL-Ia (Amersham) was added to a final concentration of 40 pM, and the plates were placed on a shaking platform at 4° C. for 2 hr. Plates were washed with PBS using a plate washer, and bound ^125I-labeled IL-la was eluted for 10 min with 0.1 M NaOH and counted in a gamma counter. IC50 values were determined by fitting the data to a two-parameter logistic equation. In all cases, nonspecific binding was determined by the addition of 3 μM of recombinant IL-Ia.

Row | IC50 [nM] | Molecule
4 | > 10000 | CC(=O)N[C@@H](CC(N)=O)C(=O)N[C@@H](CC(N)=O)C(=O)N[C@@H](CCC(N)=O)C(=O)N[C@@H](CC(C)C)C(=O)N[C@H](C(=O)N[C@@H](C)C(=O)NCC(=O)N[C@@H](Cc1ccc(O)cc1)C(=O)N[C@@H](CC(C)C)C(=O)N[C@@H](CCC(N)=O)C(=O)NCC(=O)N1CCC[C@H]1C(=O)N[C@@H](CC(N)=O)C(=O)N[C@H](C(=O)N[C@@H](CC(N)=O)C(=O)O)C(C)C)C(C)C [SEQ ID NO. 7, Ac-NNQLVAGYLQGPNVN] (Ac-NNQLVAGYLQGPNVN-OH; C-terminus assumed)
5 | > 10000 | CC[C@H](C)[C@H](NC(C)=O)C(=O)N[C@@H](CC(=O)O)C(=O)N[C@H](C(=O)N[C@H](C(=O)N1CCC[C@H]1C(=O)N[C@H](C(=O)N[C@@H](CCC(=O)O)C(=O)N[C@@H](C)C(=O)N1CCC[C@H]1C(=O)N[C@@H](Cc1c[nH]cn1)C(=O)N[C@@H](C)C(=O)N[C@@H](CC(C)C)C(=O)N[C@@H](Cc1ccccc1)C(=O)N[C@@H](CC(C)C)C(=O)NCC(=O)N[C@H](C(=O)N[C@@H](Cc1c[nH]cn1)C(=O)NCC(=O)NCC(=O)N[C@@H](CCCCN)C(=O)O)[C@@H](C)CC)[C@@H](C)CC)C(C)C)C(C)C [SEQ ID NO. 9] (Ac-IDVVPIEAPHALFLGIHGGK-OH; C-terminus assumed)
6 | > 10000 | CC[C@H](C)[C@H](NC(=O)[C@H](CC(N)=O)NC(=O)[C@@H](NC(=O)[C@H](C)NC(=O)[C@H](CCC(=O)O)NC(=O)[C@H](CC(C)C)NC(=O)[C@H](CCC(N)=O)NC(=O)[C@H](CC(C)C)NC(C)=O)C(C)C)C(=O)N[C@H](C(=O)N[C@@H](CC(=O)O)C(=O)N[C@@H](CC(C)C)C(=O)N[C@@H](CO)C(=O)N[C@@H](CCC(=O)O)C(=O)N[C@@H](CC(N)=O)C(=O)N[C@@H](CCCNC(=N)N)C(=O)N[C@@H](CCCCN)C(=O)N[C@@H](CCC(N)=O)C(=O)N[C@@H](CC(=O)O)C(=O)N[C@@H](CCCCN)C(=O)O)[C@@H](C)O [SEQ ID NO. 11, Ac-LQLEAVNITDLSENRKQDK] (Ac-LQLEAVNITDLSENRKQDK-OH; C-terminus assumed)

tested on: IL-1 stimulation of IL-8 in human skin fibroblasts; assay: Inhibition of IL-1 induced IL-8 in human fibroblasts; assay type: cell-based; conditions: inhibition of IL-1 stimulation of IL-8 in human skin fibroblasts; average of three measurements and standard error; read-out: Binding (IC50 nM)
Description: Inhibition of IL-1 induced IL-8 in human fibroblasts was determined using normal human dermal fibroblast cells cultured in DMEM with 10% fetal calf serum in 48-well plates.
Twenty-four hours before initiation of the experiment, the medium was changed to DMEM with 0.2% fetal calf serum. Each peptide was added to confluent cells, which were then pulsed for 30 min with rIL-I,B (which was obtained from R & D Systems) at 50 pg/ml. The cells were washed four times with PBS, and fresh DMEM/0.2% fetal calf serum was added to each well. After 5 hr of incubation, the culture media were collected and analyzed by ELISA for IL-8 (which was obtained from R & D Systems). Maximal activation, with IL-1 only, was 2530±13 pg/ml of IL-8. Nonspecific activation, determined in the presence of 1000-fold excess IL-1Ra, was 30±9 pg/ml of IL-8 (n=3).

Row | Molecule | IC50 [nM]
7 | CC(=O)N[C@@H](Cc1ccccc1)C(=O)N[C@H](C(=O)N[C@@H](Cc1c[nH]c2ccccc12)C(=O)N[C@@H](CCC(=O)O)C(=O)N[C@@H](CCC(=O)O)C(=O)N[C@@H](CO)C(=O)N[C@@H](CC(N)=O)C(=O)N[C@@H](C)C(=O)N[C@@H](Cc1ccc(O)cc1)C(=O)N[C@@H](Cc1ccc(O)cc1)C(=O)N[C@@H](Cc1c[nH]c2ccccc12)C(=O)N[C@@H](CCC(N)=O)C(=O)N1CCC[C@H]1C(=O)N[C@@H](Cc1ccc(O)cc1)C(=O)N[C@@H](C)C(=O)N[C@@H](CC(C)C)C(=O)N1CCC[C@H]1C(=O)N[C@@H](CC(C)C)C(=O)O)[C@@H](C)O [SEQ ID NO. 15, Ac-FTWEESNAYYWQPYALPL] (Ac-FTWEESNAYYWQPYALPL-OH; C-terminus assumed) | 16
8 | CC(=O)N[C@H](CC(C)C)C(=O)N1CCC[C@@H]1C(=O)N[C@H](CC(C)C)C(=O)N[C@H](C)C(=O)N[C@H](Cc1ccc(O)cc1)C(=O)N1CCC[C@@H]1C(=O)N[C@H](CCC(N)=O)C(=O)N[C@H](Cc1c[nH]c2ccccc12)C(=O)N[C@H](Cc1ccc(O)cc1)C(=O)N[C@H](Cc1ccc(O)cc1)C(=O)N[C@H](C)C(=O)N[C@H](CC(N)=O)C(=O)N[C@H](CO)C(=O)N[C@H](CCC(=O)O)C(=O)N[C@H](CCC(=O)O)C(=O)N[C@H](Cc1c[nH]c2ccccc12)C(=O)N[C@@H](C(=O)N[C@H](Cc1ccccc1)C(=O)O)[C@H](C)O [SEQ ID NO. 16, Ac-LPLAYPQWYYANSEEWTF] (Ac-[dL][dP][dL][dA][dY][dP][dQ][dW][dY][dY][dA][dN][dS][dE][dE][dW][dT][dF]-OH; C-terminus assumed) | 120
9 | CC(=O)N[C@H](C(=O)N[C@@H](C)C(=O)N[C@@H](CC(N)=O)C(=O)N[C@H](C(=O)N[C@@H](CO)C(=O)N[C@@H](CO)C(=O)N[C@@H](Cc1ccccc1)C(=O)N[C@@H](CCC(=O)O)C(=O)N[C@@H](Cc1c[nH]c2ccccc12)C(=O)N[C@H](C(=O)N1CCC[C@H]1C(=O)NCC(=O)N[C@@H](Cc1ccc(O)cc1)C(=O)N[C@@H](Cc1c[nH]c2ccccc12)C(=O)N[C@@H](CCC(N)=O)C(=O)N1CCC[C@H]1C(=O)N[C@@H](Cc1ccc(O)cc1)C(=O)N[C@@H](C)C(=O)N[C@@H](CC(C)C)C(=O)N1CCC[C@H]1C(=O)N[C@@H](CC(C)C)C(=O)O)[C@@H](C)O)C(C)C)[C@@H](C)O [SEQ ID NO. 17] (Ac-TANVSSFEWTPGYWQPYALPL-OH; C-terminus assumed) | 76
10 | CC(=O)N[C@H](CC(C)C)C(=O)N1CCC[C@@H]1C(=O)N[C@H](CC(C)C)C(=O)N[C@H](C)C(=O)N[C@H](Cc1ccc(O)cc1)C(=O)N1CCC[C@@H]1C(=O)N[C@H](CCC(N)=O)C(=O)N[C@H](Cc1c[nH]c2ccccc12)C(=O)N[C@H](Cc1ccc(O)cc1)C(=O)NCC(=O)N1CCC[C@@H]1C(=O)N[C@@H](C(=O)N[C@H](Cc1c[nH]c2ccccc12)C(=O)N[C@H](CCC(=O)O)C(=O)N[C@H](Cc1ccccc1)C(=O)N[C@H](CO)C(=O)N[C@H](CO)C(=O)N[C@@H](C(=O)N[C@H](CC(N)=O)C(=O)N[C@H](C)C(=O)N[C@@H](C(=O)O)[C@H](C)O)C(C)C)[C@H](C)O [SEQ ID NO. 18] | 810
11 | CC(=O)N[C@@H](CC(=O)O)C(=O)NCC(=O)N[C@@H](Cc1ccc(O)cc1)C(=O)N[C@@H](CC(=O)O)C(=O)N[C@@H](CCCNC(=N)N)C(=O)N[C@@H](Cc1c[nH]c2ccccc12)C(=O)N[C@@H](CCCNC(=N)N)C(=O)N[C@@H](CCC(N)=O)C(=O)N[C@@H](CO)C(=O)NCC(=O)N[C@@H](CCC(=O)O)C(=O)N[C@@H](CCCNC(=N)N)C(=O)N[C@@H](Cc1ccc(O)cc1)C(=O)N[C@@H](Cc1c[nH]c2ccccc12)C(=O)N[C@@H](CCC(N)=O)C(=O)N1CCC[C@H]1C(=O)N[C@@H](Cc1ccc(O)cc1)C(=O)N[C@@H](C)C(=O)N[C@@H](CC(C)C)C(=O)N1CCC[C@H]1C(=O)N[C@@H](CC(C)C)C(=O)O [SEQ ID NO. 20] (Ac-DGYDRWRQSGERYWQPYALPL-OH; C-terminus assumed) | 19
12 | CC(=O)N[C@H](CC(C)C)C(=O)N1CCC[C@@H]1C(=O)N[C@H](CC(C)C)C(=O)N[C@H](C)C(=O)N[C@H](Cc1ccc(O)cc1)C(=O)N1CCC[C@@H]1C(=O)N[C@H](CCC(N)=O)C(=O)N[C@H](Cc1c[nH]c2ccccc12)C(=O)N[C@H](Cc1ccc(O)cc1)C(=O)N[C@H](CCCNC(=N)N)C(=O)N[C@H](CCC(=O)O)C(=O)NCC(=O)N[C@H](CO)C(=O)N[C@H](CCC(N)=O)C(=O)N[C@H](CCCNC(=N)N)C(=O)N[C@H](Cc1c[nH]c2ccccc12)C(=O)N[C@H](CCCNC(=N)N)C(=O)N[C@H](CC(=O)O)C(=O)N[C@H](Cc1ccc(O)cc1)C(=O)NCC(=O)N[C@H](CC(=O)O)C(=O)O [SEQ ID NO. 21] (Ac-[dL][dP][dL][dA][dY][dP][dQ][dW][dY][dR][dE]G[dS][dQ][dR][dW][dR][dD][dY]G[dD]-OH; C-terminus assumed) | 730
